Reference: patent US5817755A, “Synthetic peptide analogs of cross-linked N-telopeptides of type I collagen” (Washington Research Foundation, priority 1997, dated 1998)
Non-standard residues stand in square brackets, D forms with d. Residues, ends and D or L forms follow the SMILES beside them. Cya = N[C@@H](CS(=O)(=O)O)C(=O)O; Aad = N[C@@H](CCCC(=O)O)C(=O)O; pGlu = O=C1CC[C@@H](C(=O)O)N1

What follows are molecules tested on mAb 1H11 (assay: OSTEOMARK competitive immunoassay testing apparent affinity of synthetic peptides for mAb 1H11). Settings: nanomoles Bone Collagen Equivalents equivalent to 1 μg peptide; back fit into OSTEOMARK standard curve; values between 0.5 and 1 OD averaged.
Assay type: binding
Excerpt: Generally, a milligram per mL solution of the peptide was made in PBS. The absorbence at A280 was read and the concentration confirmed. Dilutions of the peptide were then made in a buffer such as OSTEOMARK (TM) calibrator diluent (OSTEOMARK Assay, Ostex International, Seattle, Wash.). Working strength concentrations were between 10 and 0.01 micrograms per milliliter.
To test the apparent affinity of the synthetic peptides for mAb 1H11, the OSTEOMARK assay was run using OSTEOMARK kits and components, including monoclonal antibody 1H11. A standard curve was run using OSTEOMARK calibrators. Peptide samples were generally tested at 10, 3, 1, and down to 0.01 μG per mL. The standard OSTEOMARK curve was generated using a four parameter logistic curve fit program (MedData Inc., N.Y., N.Y.). Peptide values were back fit into the standard curve and values were reported in picomoles Bone Collagen Equivalents (BCE)/mL (which equals nanomolar BCE, or nM BCE).
Values in the Table are reported as the number of nanomoles of BCE equivalent to a microgram of a given peptide. Antibody binding values below 500 nMole BCE were considered to be commercially insignificant.

Results: peptide binding to mAb 1H11, 1 μg synthetic peptide = X nmole BCE [nmole BCE]	Structure (SMILES)
483	CC(C)[C@H](NC(=O)CNC(=O)[C@H](C)NC(=O)CNC(=O)[C@H](CC(=O)O)NC(=O)[C@H](Cc1ccc(O)cc1)NC(=O)[C@@H]1CCC(=O)N1)C(=O)NCC(=O)O [SEQ ID NO:1, J Y D G A G V G] ([pGlu]YDGAGVG-OH)
2400	CC(C)[C@H](NC(=O)CNC(=O)[C@H](CCC(=O)O)NC(=O)CNC(=O)[C@H](CC(=O)O)NC(=O)[C@H](Cc1ccc(O)cc1)NC(=O)[C@@H]1CCC(=O)N1)C(=O)NCC(=O)O [SEQ ID NO:4, J Y D G E G V G] ([pGlu]YDGEGVG-OH)
365	CC(C)[C@H](NC(=O)CNC(=O)[C@H](Cc1ccccc1)NC(=O)CNC(=O)[C@H](CC(=O)O)NC(=O)[C@H](Cc1ccc(O)cc1)NC(=O)[C@@H]1CCC(=O)N1)C(=O)NCC(=O)O [SEQ ID NO:5, J Y D G F G V G] ([pGlu]YDGFGVG-OH)
114	CC(C)[C@H](NC(=O)CNC(=O)CNC(=O)CNC(=O)[C@H](CC(=O)O)NC(=O)[C@H](Cc1ccc(O)cc1)NC(=O)[C@@H]1CCC(=O)N1)C(=O)NCC(=O)O [SEQ ID NO:6, J Y D G G G V G] ([pGlu]YDGGGVG-OH)
650	CC(C)[C@H](NC(=O)CNC(=O)[C@H](Cc1c[nH]cn1)NC(=O)CNC(=O)[C@H](CC(=O)O)NC(=O)[C@H](Cc1ccc(O)cc1)NC(=O)[C@@H]1CCC(=O)N1)C(=O)NCC(=O)O [SEQ ID NO:7, J Y D G H G V G] ([pGlu]YDGHGVG-OH)
250	CC[C@H](C)[C@H](NC(=O)CNC(=O)[C@H](CC(=O)O)NC(=O)[C@H](Cc1ccc(O)cc1)NC(=O)[C@@H]1CCC(=O)N1)C(=O)NCC(=O)N[C@H](C(=O)NCC(=O)O)C(C)C [SEQ ID NO:8, J Y D G I G V G] ([pGlu]YDGIGVG-OH)
230	CC(C)C[C@H](NC(=O)CNC(=O)[C@H](CC(=O)O)NC(=O)[C@H](Cc1ccc(O)cc1)NC(=O)[C@@H]1CCC(=O)N1)C(=O)NCC(=O)N[C@H](C(=O)NCC(=O)O)C(C)C [SEQ ID NO:10, J Y D G L G V G] ([pGlu]YDGLGVG-OH)
183	CSCC[C@H](NC(=O)CNC(=O)[C@H](CC(=O)O)NC(=O)[C@H](Cc1ccc(O)cc1)NC(=O)[C@@H]1CCC(=O)N1)C(=O)NCC(=O)N[C@H](C(=O)NCC(=O)O)C(C)C [SEQ ID NO:11, J Y D G M G V G] ([pGlu]YDGMGVG-OH)
135	CC(C)[C@H](NC(=O)CNC(=O)[C@H](CC(N)=O)NC(=O)CNC(=O)[C@H](CC(=O)O)NC(=O)[C@H](Cc1ccc(O)cc1)NC(=O)[C@@H]1CCC(=O)N1)C(=O)NCC(=O)O [SEQ ID NO:12, J Y D G N G V G] ([pGlu]YDGNGVG-OH)
2056	CC(C)[C@H](NC(=O)CNC(=O)[C@@H]1CCCN1C(=O)CNC(=O)[C@H](CC(=O)O)NC(=O)[C@H](Cc1ccc(O)cc1)NC(=O)[C@@H]1CCC(=O)N1)C(=O)NCC(=O)O [SEQ ID NO:13, J Y D G P G V G] ([pGlu]YDGPGVG-OH)
148	CC(C)[C@H](NC(=O)CNC(=O)[C@H](CCC(N)=O)NC(=O)CNC(=O)[C@H](CC(=O)O)NC(=O)[C@H](Cc1ccc(O)cc1)NC(=O)[C@@H]1CCC(=O)N1)C(=O)NCC(=O)O [SEQ ID NO:14, J Y D G Q G V G] ([pGlu]YDGQGVG-OH)
23	CC(C)[C@H](NC(=O)CNC(=O)[C@H](CCCNC(=N)N)NC(=O)CNC(=O)[C@H](CC(=O)O)NC(=O)[C@H](Cc1ccc(O)cc1)NC(=O)[C@@H]1CCC(=O)N1)C(=O)NCC(=O)O [SEQ ID NO:15, J Y D G R G V G] ([pGlu]YDGRGVG-OH)
30	CC(C)[C@H](NC(=O)CNC(=O)[C@H](CO)NC(=O)CNC(=O)[C@H](CC(=O)O)NC(=O)[C@H](Cc1ccc(O)cc1)NC(=O)[C@@H]1CCC(=O)N1)C(=O)NCC(=O)O [SEQ ID NO:16, J Y D G S G V G] ([pGlu]YDGSGVG-OH)
252	CC(C)[C@H](NC(=O)CNC(=O)[C@@H](NC(=O)CNC(=O)[C@H](CC(=O)O)NC(=O)[C@H](Cc1ccc(O)cc1)NC(=O)[C@@H]1CCC(=O)N1)[C@@H](C)O)C(=O)NCC(=O)O [SEQ ID NO:17, J Y D G T G V G] ([pGlu]YDGTGVG-OH)
400	CC(C)[C@H](NC(=O)CNC(=O)[C@H](CC(=O)O)NC(=O)[C@H](Cc1ccc(O)cc1)NC(=O)[C@@H]1CCC(=O)N1)C(=O)NCC(=O)N[C@H](C(=O)NCC(=O)O)C(C)C [SEQ ID NO:18, J Y D G V G V G] ([pGlu]YDGVGVG-OH)
1300	CC(C)[C@H](NC(=O)CNC(=O)[C@H](Cc1c[nH]c2ccccc12)NC(=O)CNC(=O)[C@H](CC(=O)O)NC(=O)[C@H](Cc1ccc(O)cc1)NC(=O)[C@@H]1CCC(=O)N1)C(=O)NCC(=O)O [SEQ ID NO:19, J Y D G W G V G] ([pGlu]YDGWGVG-OH)
104	CC(C)[C@H](NC(=O)CNC(=O)[C@H](Cc1ccc(O)cc1)NC(=O)CNC(=O)[C@H](CC(=O)O)NC(=O)[C@H](Cc1ccc(O)cc1)NC(=O)[C@@H]1CCC(=O)N1)C(=O)NCC(=O)O [SEQ ID NO:20, J Y D G Y G V G] ([pGlu]YDGYGVG-OH)
1000	CC(C)[C@H](NC(=O)CNC(=O)[C@H](CS(=O)(=O)O)NC(=O)CNC(=O)[C@H](CC(=O)O)NC(=O)[C@H](Cc1ccc(O)cc1)NC(=O)[C@@H]1CCC(=O)N1)C(=O)NCC(=O)O [SEQ ID NO:26, j Y D G X^2 G V G] ([pGlu]YDG[Cya]GVG-OH)
< 50	CC(C)[C@H](NC(=O)CNC(=O)[C@H](CCC(=O)O)NC(=O)[C@H](C)NC(=O)[C@H](CC(=O)O)NC(=O)[C@H](Cc1ccc(O)cc1)NC(=O)[C@@H]1CCC(=O)N1)C(=O)NCC(=O)O [SEQ ID NO:27, J Y D A E G V G] ([pGlu]YDAEGVG-OH)
< 50	CC(C)[C@H](NC(=O)[C@H](C)NC(=O)[C@H](CCC(=O)O)NC(=O)CNC(=O)[C@H](CC(=O)O)NC(=O)[C@H](Cc1ccc(O)cc1)NC(=O)[C@@H]1CCC(=O)N1)C(=O)NCC(=O)O [SEQ ID NO:28, J Y D G E A V G] ([pGlu]YDGEAVG-OH)
3000	CC(C)[C@H](NC(=O)CNC(=O)[C@H](CCC(=O)O)NC(=O)CNC(=O)[C@H](CCC(=O)O)NC(=O)[C@H](Cc1ccc(O)cc1)NC(=O)[C@@H]1CCC(=O)N1)C(=O)NCC(=O)O [SEQ ID NO:30, J Y E G E G V G] ([pGlu]YEGEGVG-OH)
1000	CC(C)[C@H](NC(=O)CNC(=O)[C@H](CC(=O)O)NC(=O)CNC(=O)[C@H](CCC(=O)O)NC(=O)[C@H](Cc1ccc(O)cc1)NC(=O)[C@@H]1CCC(=O)N1)C(=O)NCC(=O)O [SEQ ID NO:32, J Y E G D G V G] ([pGlu]YEGDGVG-OH)
750	CC(C)[C@H](NC(=O)CNC(=O)[C@H](CCCC(=O)O)NC(=O)CNC(=O)[C@H](CC(=O)O)NC(=O)[C@H](Cc1ccc(O)cc1)NC(=O)[C@@H]1CCC(=O)N1)C(=O)NCC(=O)O [SEQ ID NO:34, J Y D G X^4 G V G] ([pGlu]YDG[Aad]GVG-OH)

Same assay, conditions: nanomoles Bone Collagen Equivalents equivalent to 1 μg peptide; back fit into OSTEOMARK standard curve; values between 0.5 and 1 OD averaged; listed as 3

Results: peptide binding to mAb 1H11, 1 μg synthetic peptide = X nmole BCE [nmole BCE]	Structure (SMILES)
1840	CC(C)[C@H](NC(=O)CNC(=O)[C@H](CC(=O)O)NC(=O)CNC(=O)[C@H](CC(=O)O)NC(=O)[C@H](Cc1ccc(O)cc1)NC(=O)[C@@H]1CCC(=O)N1)C(=O)NCC(=O)O [SEQ ID NO:3, J Y D G D G V G] ([pGlu]YDGDGVG-OH)

Same assay, conditions: nanomoles Bone Collagen Equivalents equivalent to 1 μg peptide; back fit into OSTEOMARK standard curve; values between 0.5 and 1 OD averaged; listed as 31

Results: peptide binding to mAb 1H11, 1 μg synthetic peptide = X nmole BCE [nmole BCE]	Structure (SMILES)
1400	CC(C)[C@H](NC(=O)CNC(=O)[C@H](CC(=O)O)NC(=O)CNC(=O)[C@H](CC(=O)O)NC(=O)[C@H](Cc1ccc(O)cc1)NC(=O)[C@@H]1CCC(=O)N1)C(=O)NCC(=O)O [SEQ ID NO:31, J Y D G D G V G] ([pGlu]YDGDGVG-OH)

Same assay, conditions: synthetic peptide, antibody inhibition assay

binding to mAb 1H11 (in words)	Structure (SMILES)
not recognized	CC(C)[C@H](NC(=O)CNC(=O)[C@H](CCC(=O)O)NC(=O)CNC(=O)[C@H](CC(=O)O)NC(=O)[C@H](Cc1ccc(O)cc1)NC(=O)[C@@H](N)CCC(=O)O)C(=O)NCC(=O)O [EYDGEGVG] (H-EYDGEGVG-OH)
Improved binding	CC(C)[C@H](NC(=O)CNC(=O)[C@H](CCC(=O)O)NC(=O)CNC(=O)[C@H](CC(=O)O)NC(=O)[C@H](Cc1ccc(O)cc1)NC(=O)[C@@H]1CCC(=O)N1)C(=O)NCC(=O)O [SEQ ID NO:4, J Y D G E G V G] ([pGlu]YDGEGVG-OH)
more limited degree of 1H11 binding	CC(C)[C@H](NC(=O)CNC(=O)[C@H](Cc1c[nH]cn1)NC(=O)CNC(=O)[C@H](CC(=O)O)NC(=O)[C@H](Cc1ccc(O)cc1)NC(=O)[C@@H]1CCC(=O)N1)C(=O)NCC(=O)O [SEQ ID NO:7, J Y D G H G V G] ([pGlu]YDGHGVG-OH)
loss of mAb 1H11 binding affinity	CC(C)[C@H](NC(=O)[C@H](C)NC(=O)[C@H](CCC(=O)O)NC(=O)CNC(=O)[C@H](CC(=O)O)NC(=O)[C@H](Cc1ccc(O)cc1)NC(=O)[C@@H]1CCC(=O)N1)C(=O)NCC(=O)O [SEQ ID NO:28, J Y D G E A V G] ([pGlu]YDGEAVG-OH)

Structure (SMILES)	binding to mAb 1H11 (in words)
CC(C)[C@H](NC(=O)CNC(=O)[C@H](CCC(=O)O)NC(=O)[C@H](C)NC(=O)[C@H](CC(=O)O)NC(=O)[C@H](Cc1ccc(O)cc1)NC(=O)[C@@H]1CCC(=O)N1)C(=O)NCC(=O)O [SEQ ID NO:27, J Y D A E G V G] ([pGlu]YDAEGVG-OH)	substantially eliminates mAb 1H11 binding affinity

Same assay, conditions: synthetic peptide, antibody inhibition assay; listed as Gln-Tyr-Asp-Gly-Glu-Gly-Val-Gly

Structure (SMILES)	binding to mAb 1H11 (in words)
CC(C)[C@H](NC(=O)CNC(=O)[C@H](CCC(=O)O)NC(=O)CNC(=O)[C@H](CC(=O)O)NC(=O)[C@H](Cc1ccc(O)cc1)NC(=O)[C@@H]1CCC(=O)N1)C(=O)NCC(=O)O [SEQ ID NO:4, J Y D G E G V G] ([pGlu]YDGEGVG-OH)	comparable to that of the cross-linked NTx antigen
